# How the values were obtained:
# Assay type in all cases: cell-based
# PC-12 cells [1] = test: Neuroprotective effect on H2O2 induced PC-12 cells injury (MTT); conditions: 10.0 µM; H2O2 100 µM (model 50.1%)
# Experimental: (§1) MTT method was used to detect the in vitro neuroprotective effect of 3h on H2O2 induced PC-12 cells injury, with resveratrol as positive control. Firstly, the cytotoxicity of 3h to PC-12 cells was measured. […] […].
# (§2) 3-(4,5-dimethylthiazol-2-yl)-2,5-diphenyltetrazolium bromide (MTT) method was conducted to measure the in vitro neuroprotective effect of 3h[44]. Firstly the cytotoxicity of 3h towards PC-12 cells was detected. In detail, PC-12 cells were seeded into 96-well cell culture plate in DMEM (100 µL, 1 × 10^5 cells per mL) firstly. Then, these cells were incubated at 37 °C for 24 h. After incubation, test compound solutions (10 µL) were added to the plate, and the mixture was incubated for another 2 h at 37 °C. Then, MTT solution (100 µL, 5 mg/ml in PBS) was added to each well, which would be incubated at 37 °C for final 4 h. After the final incubation, the supernatants were removed, and the formazan was dissolved in DMSO (150 µL). Then, the absorbance at 490 nm was determined by using a Varioskan Flash Multimode Reader (Thermo Scientific). As for the assay to evaluate the neuroprotective effect of 3h, the procedures were almost similar, but after the incubation of cells with 3h, H2O2 (100 µM) was added and the mixture was further incubated for 24 h.
# [2] = test system: NO release in LPS-activated BV-2 microglia cells; test: LPS-induced NO release in BV-2 cells (Griess method); conditions: Mus musculus, 10.0 µM, LPS 1.0 µg/mL, read-out: inhibitory rate of LPS-induced NO release
# Experimental: Then, Griess method was performed to measure the inhibitory effect of 3h on LPS-induced NO release in BV-2 cells. […] It reflected that LPS could induce the activation of BV-2 cells and induce neuroinflammation.
# (§3) ELISA and Griess reaction methods were performed to detect the inhibitory effect of 3h on the release of TNF-α and NO in LPS-stimulated BV-2 cells[46]^,[47]. BV-2 cells in the logarithmic phase were seeded into 96-well cell culture plate, and these cells were incubated at 37 °C for 24 h at the atmosphere of 5% CO2. After incubation, the culture solution was replaced by fresh one (90 µL without serum), and test compound solution (10 µL) was added. After addition, the plate was incubated for 30 min, then LPS (10 µL, 1.0 µg/ml in PBS) was added to each well, and the mixture would be incubated for another 24 h at 37 °C. After the final incubation, the supernatants were taken out to measure the level of TNF-α and NO according to the procedures depicted on the kits (kits were purchased from Nanjing Jiancheng Bioengineering Institute).
# PC-12 cells [3] = test: Cytotoxicity towards PC-12 cells (MTT); conditions: at the concentration of 10.0 µM
# Experimental: as §1, §2
# BV-2 cells = test: Cytotoxicity towards BV-2 cells with or without LPS (MTT); conditions: up to 10.0 µM in the presence or absence LPS (1.0 µg/mL)
# Experimental: The in vitro anti-neuroinflammatory activity of 3h was detected by using LPS-induced inflammation mode in BV-2 cells, with resveratrol as the positive control compound[45]. The cytotoxicities of resveratrol and 3h to BV-2 cells were firstly detected by MTT method.
# Firstly, the MTT method was carried out to determine the cytotoxicity of 3h towards BV-2 cell line[45]. BV-2 cells in the logarithmic phase were seeded into 96-well cell culture plate, followed by the incubation at 37 °C for 24 h at the atmosphere of 5% CO2. After incubation, the culture was replaced by fresh one (90 µL without serum), and test compound solution (10 µL) was added. Then, the mixture was incubated for another 30 min, and MTT (100 µL, 0.5 mg/ml in PBS) was added to each well. After the final incubation at 37 °C for 4 h, the supernatants were removed, and the formazan was dissolved in 200 µL of DMSO. Then, the absorbance at 490 nm was determined by using a Varioskan Flash Multimode Reader (Thermo Scientific). As for the method to evaluate the cytotoxicity of 3h towards LPS-stimulated BV-2 cells, the procedures were almost similar, but after the incubation of cells with 3h, LPS (10 µL, 1.0 µg/mL) was added, and the mixture was further incubated for 24 h.
# [4] = test system: ROS release in LPS-treated BV-2 cells; test: LPS-induced ROS release in BV-2 cells (DCFH-DA probe); conditions: concentration not given, LPS 1.0 µg/mL
# Experimental: The inhibitory effect of 3h on LPS-induced ROS release in BV-2 cells in vitro was detected by using 2′,7′-dichlorofluorescein diacetate (DCFH-DA) as probe to quantify the ROS level in LPS-treated BV-2 cells. Noticeably, the fluorescence intensity of control group was relatively low, indicating low level of ROS. […] The fluorescence values were further detected by using microplate reader (Figure 9(B)), and then the inhibition rates were calculated. […] BV-2 cells were incubated with test compound solution (10 µL) for 30 min, then LPS (10 µL, 1.0 µg/ml in PBS) was added to each well, and each well would be incubated for another 30 min at 37 °C. […] The fluorescence was measured with excitation and emission wavelengths at 488 and 525 nm on an inverted fluorescence microscope.
# [5] = test system: TNF-α production in LPS-activated BV-2 microglia cells; test: LPS-induced TNF-α production in BV-2 cells (ELISA); conditions: Mus musculus, 10.0 µM, LPS 1.0 µg/mL, read-out: inhibition rate of LPS-induced TNF-α production
# Experimental: ELISA method was carried out to detect the inhibitory effects of 3h on LPS-induced TNF-α production. As shown in Figure 8(B), the level of TNF-α expression was dramatically raised when BV-2 cells were exposed to LPS (1.0 µg/mL).
# as §3
smiles,measurement,setting,value
"Oc1ccc(/C=C/c2cc(O)cc(O)c2)cc1 [resveratrol, reference compound]",cell viability of H2O2-injured PC-12 cells,PC-12 cells [1],64.3 % of control value
same,inhibition at 10 µM,[2],51.2%
same,PC-12 cell viability (cytotoxicity),PC-12 cells [3],did not significantly alter the PC-12 cell viability
same,BV-2 cell viability (cytotoxicity),BV-2 cells,did not significantly alter the BV-2 cell viability
same,inhibition rate of LPS-induced ROS release,[4],59.8%
same,inhibition at 10 µM,[5],50.3%

# Source: publication PMC9897792, “Discovery of novel 2-(4-(benzyloxy)-5-(hydroxyl) phenyl) benzothiazole derivatives as multifunctional MAO-B inhibitors for the treatment of Parkinson’s disease” (Journal of Enzyme Inhibition and Medicinal Chemistry, 2023)
